Experimental data as given in US20220265847A1, “METHODS AND COMPOSITIONS FOR TREATING NON-SMALL CELL LUNG CANCER” (Board of Regents, The University of Texas System, priority 2019, published 2022).

Assays:
Type in all cases: cell-based
[1] = test system: HCC827 (EGFR mutant) cells; assay: Sensitivity of HCC827 parental cells to EGFR TKIs compared to EGFR TKI resistant (ER) variants; conditions: FIG. 1
[2] = test system: HCC4006 (EGFR mutant) cells; assay: Sensitivity of HCC4006 parental cells to EGFR TKIs compared to EGFR TKI resistant (ER) variants; conditions: FIG. 1
Text: While EGFR mutant NSCLC patients are initially responsive to EGFR tyrosine kinase inhibitors (TKI), resistant disease inevitably emerges. The inventors derived a panel of NSCLC cell lines with acquired resistance to EGFR TKIs. […] CD70 is typically expressed on T-cells and B-cells, but can also be expressed by some malignant cells. Expression of CD70 by tumor cells is thought to contribute to an immunosuppressive environment by affecting/attracting regulatory T cells and promoting T cell apoptosis and exhaustion.
While EGFR mutant NSCLC patients are initially responsive to EGFR tyrosine kinase inhibitors (TKI), resistant disease inevitably emerges. The inventors derived a panel of NSCLC cell lines with acquired resistance to EGFR TKIs. […] Once tumors were visualized by CT imaging, doxycycline was withdrawn from a subset of animals to mimic EGFR inhibition. […] Tumors were collected an CD70 expression was analyzed by immunohistochemistry. […] Next, the inventors evaluated CD70 expression in EGFR mutant EGFRTKI naïve NSCLC clinical specimens and EGFR mutant NSCLC specimens collected after EGFR TKI resistance.

[3] = test system: HCC827 cells with induced expression of ZEB1; assay: EGFR TKI sensitivity of HCC827 cells after induced ZEB1 expression (EMT induction); conditions: HCC827 (EGFR TKI sensitive) cells with induced ZEB1 expression; FIG. 4B-D / 10B
Text: Next, the inventors investigated the impact of EMT on CD70 expression in EGFR mutant NSCLC cell lines. The inventors induced EMT through forced expression of ZEB1 in HCC827 parental (EGFR TKI sensitive) cells. […] The inventors next evaluated whether CD70 expression was associated with a mesenchymal phenotype in NSCLC cell lines and human lung adenocarcinomas using the TCGA database.

[4] = test system: HCC4006 osimertinib-resistant (OR) cells; assay: Soluble CD27 stimulation of CD70, downstream signalling by Western blotting; conditions: FIG. 12
Method: FIG. 12. Stimulation of CD70 activates signal transduction pathways in EGFR TKI resistant cells. HCC4006 osimertinib-resistant (OR) cells were treated with soluble CD27, the binding partner of CD70, and the effect on downstream signal transduction pathways was evaluated by Western blotting.
Binding of CD27 to CD70 induces activation of signal transduction pathways downstream of CD70. To investigate the potential impact of CD70 signaling on EGFR TKI resistant cells, the inventors stimulated EGR TKI resistant cells with recombinant soluble CD27.

[5] = test system: H1975 OR16; assay: CD70 ADC relative cell viability; conditions: H1975 OR16 vs H1975 parental (CD70 low); increasing concentrations; FIG. 14 and 16
Text: (§1) FIG. 14A-C. CD70 antibody-drug conjugates (ADCs) target CD70+ EGFR TKI resistant cell in vitro.
(§2) To determine whether CD70 antibody drug conjugates (ADCs) are a valid approach for targeting EGFR TKI resistant cells, the inventors treated H1975 cells (CD70 low and EGFR TKI sensitive) and H1975 OR5 and H1975 OR16 (both EGFR TKI resistant and CD70 high) with increasing concentrations of the CD70 ADCs cuzatuzumab-MMAE or vorsetuzumab-MMAE. […] The inventors further observed an additive anti-tumor cell effect when osimertinib was combined with anti-CD70 ADCs. (FIG. 15).

[6] = test system: H1975 OR5; assay: CD70 ADC relative cell viability
Text: as §1, §2

Molecule | sensitivity to EGFR TKI [1] | sensitivity to EGFR TKI [2] | sensitivity to EGFR TKI after ZEB1 expression [3] | effect on downstream signal transduction pathways [4] | sensitivity to CD70 ADC versus H1975 parental cells [5] | anti-tumor cell activity (relative cell viability) ([6]; H1975 OR5, CD70 high, EGFR TKI resistant, FIG. 14) | sensitivity to CD70 ADC versus H1975 parental cells ([6]; H1975 OR5 vs H1975 parental (CD70 low), increasing concentrations, FIG. 14 and 16)
C#Cc1cccc(Nc2ncnc3cc(OCCOC)c(OCCOC)cc23)c1 [erlotinib] | sensitive | sensitive | resistant |  |  |  | 
C=CC(=O)Nc1cc(Nc2nccc(-c3cn(C)c4ccccc34)n2)c(OC)cc1N(C)CCN(C)C [osimertinib] | sensitive | sensitive | resistant |  |  |  | 
soluble CD27: recombinant soluble CD27, the binding partner of CD70 (protein, UniProt P26842 20-191, looked up, extracellular domain) extracellular domain: ATPAPKSCPERHYWAQGKLCCQMCEPGTFLVKDCDQHRKAAQCDPCIPGVSFSPDHHTRPHCESCRHCNSGLLVRNCTITANAECACRNGWQCRDKECTECDPLPNPSLTARSSQALSPHPQPTHLPYVSEMLEARTAGHMQTLADFRQLPARTLSTHWPPQRSLCSSDFIR |  |  |  | phosphorylation of Akt and ERK |  |  | 
vorsetuzumab-MMAE (conjugate, chains of the INN, looked up, MMAE payload) VH: QVQLVQSGAEVKKPGASVKVSCKASGYTFTNYGMNWVRQAPGQGLKWMGWINTYTGEPTYADAFKGRVTMTRDTSISTAYMELSRLRSDDTAVYYCARDYGDYGMDYWGQGTTVTVSS VL: DIVMTQSPDSLAVSLGERATINCRASKSVSTSGYSFMHWYQQKPGQPPKLLIYLASNLESGVPDRFSGSGSGTDFTLTISSLQAEDVAVYYCQHSREVPWTFGQGTKVEIK |  |  |  |  | more sensitive | anti-tumor cell activity | more sensitive
